According to BindingDB's records for doi:10.1021/acs.biochem.6b01020 (University of Delaware, 2017):
Square brackets hold non-standard residues; d marks the D form. Peptide text beside a SMILES is read from it. * marks the point of attachment. C(CF3)3 = FC(F)(F)C(C(F)(F)F)(C(F)(F)F)*; Hyp = O=C(O)[C@@H]1C[C@@H](O)CN1; hSer = N[C@@H](CCO)C(=O)O

Target: T1, Estradiol-bound Estrogen receptor [255-595] (Homo sapiens, UniProt P03372)
T1 construct: 255-595
T1 sequence (P03372 whole entry): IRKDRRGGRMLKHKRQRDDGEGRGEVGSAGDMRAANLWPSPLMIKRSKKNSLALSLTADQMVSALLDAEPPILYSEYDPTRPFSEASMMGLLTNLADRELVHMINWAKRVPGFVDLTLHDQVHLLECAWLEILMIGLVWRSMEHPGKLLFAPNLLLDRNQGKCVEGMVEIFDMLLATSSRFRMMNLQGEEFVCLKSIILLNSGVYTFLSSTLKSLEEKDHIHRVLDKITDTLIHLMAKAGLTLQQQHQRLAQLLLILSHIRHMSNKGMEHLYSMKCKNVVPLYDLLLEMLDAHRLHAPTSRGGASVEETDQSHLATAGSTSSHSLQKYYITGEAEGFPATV
Assay: Fluorescence Polarization Assay
Conditions: pH 7.4; 25 °C
Protocol: Peptide concentrations were determined by the absorbance at 492 nm, using a fluorescein extinction coefficient of 83000. Fluorescence polarization assays were conducted in 96-well round-bottom black opaque plates (Costar) using 2-fold serial dilutions of the ERα LBD, to final protein concentrations from 10 to 0.0098 μM, in PBS containing 0.1 mM DTT, 20 μM 17β-estradiol, 0.04 mg/mL BSA, and 100 nM fluorescein-labeled peptide. Solutions were incubated in the dark for 30 min at room temperature before being read on a PerkinElmer Fusion plate reader using a 485 nm fluorescein excitation filter and a 535 nm emission filter with a polarizer.

Molecule | Kd [µM]
CC[C@H](C)[C@H](NC(=O)[C@H](CCCCN)NC(=O)[C@H](Cc1cnc[nH]1)NC(=O)[C@H](CCCNC(=N)N)NC(=O)[C@H](CCC(=O)O)NC(=O)[C@@H](NC(=O)[C@H](CC(C)C)NC(=O)[C@@H](N)CS)[C@@H](C)O)C(=O)N[C@H](CCOC(C(F)(F)F)(C(F)(F)F)C(F)(F)F)C(=O)N[C@@H](Cc1cnc[nH]1)C(=O)N[C@@H](CCCNC(=N)N)C(=O)N[C@@H](CC(C)C)C(=O)N[C@@H](CC(C)C)C(=O)N[C@@H](CCC(N)=O)C(=O)N[C@@H](CCC(=O)O)C(=O)O | 43
CC[C@H](C)[C@H](NC(=O)[C@H](CCCCN)NC(=O)[C@H](Cc1cnc[nH]1)NC(=O)[C@H](CCCNC(=N)N)NC(=O)[C@H](CCC(=O)O)NC(=O)[C@@H](NC(=O)[C@H](CC(C)C)NC(=O)[C@@H](N)CS)[C@@H](C)O)C(=O)N1C[C@H](OC(C(F)(F)F)(C(F)(F)F)C(F)(F)F)C[C@H]1C(=O)N[C@@H](Cc1cnc[nH]1)C(=O)N[C@@H](CCCNC(=N)N)C(=O)N[C@@H](CC(C)C)C(=O)N[C@@H](CC(C)C)C(=O)N[C@@H](CCC(N)=O)C(=O)N[C@@H](CCC(=O)O)C(=O)O (H-CLTERHKI[Hyp](C(CF3)3)HRLLQE-OH) | > 150
CC(C)C[C@H](NC(=O)[C@H](CC(C)C)NC(=O)[C@H](CCCNC(=N)N)NC(=O)[C@H](Cc1cnc[nH]1)NC(=O)[C@H](CC(C)C)NC(=O)[C@H](CCOC(C(F)(F)F)(C(F)(F)F)C(F)(F)F)NC(=O)[C@H](CCCCN)NC(=O)[C@H](Cc1cnc[nH]1)NC(=O)[C@H](CCCNC(=N)N)NC(=O)[C@H](CCC(=O)O)NC(=O)[C@@H](NC(=O)[C@H](CC(C)C)NC(=O)[C@@H](N)CS)[C@@H](C)O)C(=O)N[C@@H](CCC(N)=O)C(=O)N[C@@H](CCC(=O)O)C(=O)O [CLTERHK(Hse(C4F9))LHRLLQE] (H-CLTERHK[hSer](C(CF3)3)LHRLLQE-OH) | 7.1

Stronger by Kd, values ahead:

Kd [µM] | Molecule
2.2 | CC[C@H](C)[C@H](NC(=O)[C@H](CCCCN)NC(=O)[C@H](Cc1cnc[nH]1)NC(=O)[C@H](CCCNC(=N)N)NC(=O)[C@H](CCC(=O)O)NC(=O)[C@@H](NC(=O)[C@H](CC(C)C)NC(=O)[C@@H](N)CS)[C@@H](C)O)C(=O)N[C@@H](CC(C)C)C(=O)N[C@@H](Cc1cnc[nH]1)C(=O)N[C@@H](CCCNC(=N)N)C(=O)N[C@@H](CCOC(C(F)(F)F)(C(F)(F)F)C(F)(F)F)C(=O)N[C@@H](CC(C)C)C(=O)N[C@@H](CCC(N)=O)C(=O)N[C@@H](CCC(=O)O)C(=O)O (H-CLTERHKILHR[hSer](C(CF3)3)LQE-OH)
1 | H-CLTERHKILHRLLQE-OH
